What was measured:
Format in all cases: cell-based
[1] = target: T1, SALL4 recruitment to CRBN (Homo sapiens, UniProt Q96SW2); assay: Recruitment Assay (MAPPIT-like): SALL4 recruitment to CRBN; settings: HEK293T cells; pSEL-SALL4+pMG1-CRBN; luciferase 24 hours after treatment; read-out: EC50_SALL4
T1 construct: Full size proteins were fused for each of the target proteins tested, except in the case of IKZF1 where isoform 7 was used; expressed in transfected cells; host or cells: HEK293T
Description: (§1) In this experimental set-up, cells were transfected with a construct encoding a CRBN-fusion protein and another one encoding a substrate-fusion protein. Test compound activity was assessed with increasing concentrations of test compounds (dose-response studies) to monitor the ability to promote CRBN-ligand-induced protein interaction.
(§2) Full size proteins were fused for each of the target proteins tested, except in the case of IKZF1 where isoform 7 was used. For the study, the following were used: IKZF1 recruitment: pSEL-CRBN+pMG1-IKZF1(isoform 7); ASS1 recruitment: pSEL-CRBN+pMG1-ASS1. SALL4 recruitment: pSEL-SALL4+pMG1-CRBN. […] Luciferase activity was measured 24 hours after test compound treatment using the Luciferase Assay System kit (PROMEGA, Madison, Wis.) with an Ensight plate reader (PERKIN ELMER LIFE SCIENCES, Waltham, Mass.). Data points depicted fold induction of the average luciferase activity of triplicate samples from EPO+test compound treated cells versus EPO only treated cells. Error bars represent standard deviations. Curves were fit using 4-parameter nonlinear regression in […] PRISM software.

[2] = system: IKZF1, ASS1 and SALL4 recruitment to CRBN; assay: Recruitment assessment: recruitment of any tested substrate from among IKZF1, ASS1 and SALL4; settings: any tested substrate at any tested compound concentration
[3] = target: T2, IKZF1 (isoform 7) recruitment to CRBN (Homo sapiens, UniProt Q96SW2); assay: Recruitment Assay (MAPPIT-like): IKZF1 recruitment to CRBN; settings: HEK293T cells; pSEL-CRBN+pMG1-IKZF1(isoform 7); luciferase 24 hours after treatment; read-out: EC50_IKZF1
T2 construct: Full size proteins were fused for each of the target proteins tested, except in the case of IKZF1 where isoform 7 was used; expressed in transfected cells; host or cells: HEK293T
Description: as §1, §2

T2 sequence (Q96SW2 whole entry, the tested form may be a part, canonical isoform): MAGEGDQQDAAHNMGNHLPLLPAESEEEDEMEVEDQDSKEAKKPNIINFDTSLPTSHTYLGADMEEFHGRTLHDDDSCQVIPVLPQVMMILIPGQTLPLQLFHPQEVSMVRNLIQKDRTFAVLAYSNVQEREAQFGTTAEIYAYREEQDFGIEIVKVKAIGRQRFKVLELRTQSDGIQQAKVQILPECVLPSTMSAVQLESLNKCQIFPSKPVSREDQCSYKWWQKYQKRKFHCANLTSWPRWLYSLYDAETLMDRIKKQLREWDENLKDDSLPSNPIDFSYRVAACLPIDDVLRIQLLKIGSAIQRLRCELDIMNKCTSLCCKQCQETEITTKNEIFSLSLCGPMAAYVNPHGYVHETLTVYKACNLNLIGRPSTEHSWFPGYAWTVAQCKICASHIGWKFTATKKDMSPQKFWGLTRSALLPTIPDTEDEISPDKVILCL
T2 sequence (Q13422 1-477 isoform Q13422-7 partner): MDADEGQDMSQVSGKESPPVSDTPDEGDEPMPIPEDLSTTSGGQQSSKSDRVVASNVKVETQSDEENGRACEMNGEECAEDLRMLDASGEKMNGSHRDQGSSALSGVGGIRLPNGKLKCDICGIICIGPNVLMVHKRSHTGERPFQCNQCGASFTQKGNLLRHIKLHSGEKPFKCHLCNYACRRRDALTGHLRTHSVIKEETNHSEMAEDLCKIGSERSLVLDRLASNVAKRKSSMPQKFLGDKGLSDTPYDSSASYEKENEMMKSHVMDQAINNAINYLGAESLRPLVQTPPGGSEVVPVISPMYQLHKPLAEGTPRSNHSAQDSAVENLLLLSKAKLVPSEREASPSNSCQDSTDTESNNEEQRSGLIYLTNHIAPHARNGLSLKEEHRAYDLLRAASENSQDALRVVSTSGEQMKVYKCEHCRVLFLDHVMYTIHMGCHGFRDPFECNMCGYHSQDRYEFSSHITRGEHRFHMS
T2 sequence (Q16531 whole entry partner, the tested form may be a part, canonical isoform): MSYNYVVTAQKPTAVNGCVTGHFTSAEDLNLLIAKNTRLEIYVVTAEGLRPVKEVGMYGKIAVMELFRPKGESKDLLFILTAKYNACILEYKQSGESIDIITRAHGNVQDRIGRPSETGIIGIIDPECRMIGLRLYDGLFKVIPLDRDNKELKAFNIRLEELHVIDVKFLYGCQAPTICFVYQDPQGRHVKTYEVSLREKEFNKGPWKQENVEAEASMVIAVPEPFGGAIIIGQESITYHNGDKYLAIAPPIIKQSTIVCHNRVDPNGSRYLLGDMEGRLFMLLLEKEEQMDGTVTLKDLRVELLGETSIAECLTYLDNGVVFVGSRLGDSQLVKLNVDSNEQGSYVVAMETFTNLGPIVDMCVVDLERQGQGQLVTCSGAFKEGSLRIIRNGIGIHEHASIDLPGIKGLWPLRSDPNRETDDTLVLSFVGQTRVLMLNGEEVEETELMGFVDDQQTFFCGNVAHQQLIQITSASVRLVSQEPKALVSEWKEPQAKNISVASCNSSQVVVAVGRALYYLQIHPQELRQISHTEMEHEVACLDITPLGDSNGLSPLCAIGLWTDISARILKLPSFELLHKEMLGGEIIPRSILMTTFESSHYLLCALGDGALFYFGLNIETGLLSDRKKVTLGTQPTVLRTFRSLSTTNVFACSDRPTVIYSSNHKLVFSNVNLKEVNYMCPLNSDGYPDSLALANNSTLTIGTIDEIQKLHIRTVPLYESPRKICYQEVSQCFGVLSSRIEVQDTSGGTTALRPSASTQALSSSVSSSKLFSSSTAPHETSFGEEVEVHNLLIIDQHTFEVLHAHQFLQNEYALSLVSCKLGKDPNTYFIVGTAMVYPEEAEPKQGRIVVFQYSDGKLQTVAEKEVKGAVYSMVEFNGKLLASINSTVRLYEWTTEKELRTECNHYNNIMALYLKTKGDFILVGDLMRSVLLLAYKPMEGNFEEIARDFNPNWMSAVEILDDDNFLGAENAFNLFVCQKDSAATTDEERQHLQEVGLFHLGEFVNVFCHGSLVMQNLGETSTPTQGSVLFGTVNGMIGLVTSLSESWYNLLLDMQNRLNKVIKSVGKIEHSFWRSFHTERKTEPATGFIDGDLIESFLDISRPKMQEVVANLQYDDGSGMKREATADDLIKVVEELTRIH
T1 sequence (Q96SW2 whole entry, the tested form may be a part, canonical isoform): as the sequence (Q96SW2 whole entry, the tested form may be a part, canonical isoform) above
T1 sequence (Q9UJQ4 whole entry partner, the tested form may be a part, canonical isoform): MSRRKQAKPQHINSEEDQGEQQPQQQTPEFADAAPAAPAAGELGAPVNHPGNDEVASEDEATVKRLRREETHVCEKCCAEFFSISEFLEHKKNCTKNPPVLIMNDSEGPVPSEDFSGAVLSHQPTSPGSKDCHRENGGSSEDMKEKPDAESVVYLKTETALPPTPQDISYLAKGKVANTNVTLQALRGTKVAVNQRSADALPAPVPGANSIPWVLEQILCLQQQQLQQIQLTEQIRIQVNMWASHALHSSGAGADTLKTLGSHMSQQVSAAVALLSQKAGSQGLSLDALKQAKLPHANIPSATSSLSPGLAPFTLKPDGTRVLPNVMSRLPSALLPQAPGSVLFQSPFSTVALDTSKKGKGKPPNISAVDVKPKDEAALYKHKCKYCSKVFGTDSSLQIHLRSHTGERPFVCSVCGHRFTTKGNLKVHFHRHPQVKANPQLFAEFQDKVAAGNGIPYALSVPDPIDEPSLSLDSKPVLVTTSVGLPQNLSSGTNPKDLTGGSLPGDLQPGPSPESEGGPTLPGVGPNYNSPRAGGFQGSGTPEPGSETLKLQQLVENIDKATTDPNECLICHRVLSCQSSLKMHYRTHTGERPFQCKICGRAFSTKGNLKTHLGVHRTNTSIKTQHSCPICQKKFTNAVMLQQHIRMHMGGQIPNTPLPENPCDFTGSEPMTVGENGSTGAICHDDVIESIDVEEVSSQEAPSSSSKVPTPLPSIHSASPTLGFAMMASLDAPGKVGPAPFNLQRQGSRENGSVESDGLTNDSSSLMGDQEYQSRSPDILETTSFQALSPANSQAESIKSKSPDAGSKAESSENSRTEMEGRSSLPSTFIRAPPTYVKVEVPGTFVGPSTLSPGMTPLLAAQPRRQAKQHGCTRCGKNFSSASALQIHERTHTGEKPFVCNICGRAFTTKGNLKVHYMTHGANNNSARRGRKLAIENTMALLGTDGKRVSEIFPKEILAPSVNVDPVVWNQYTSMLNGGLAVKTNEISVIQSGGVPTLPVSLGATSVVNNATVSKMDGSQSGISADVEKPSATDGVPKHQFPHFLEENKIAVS
T1 sequence (Q16531 whole entry partner, the tested form may be a part, canonical isoform): as the sequence (Q16531 whole entry partner, the tested form may be a part, canonical isoform) above

Row | SMILES | EC50 [1] [nM] | Recruitment Assessment [2] | EC50 [3] [nM]
1 | CS(=O)(=O)Nc1cccc2c1CN(C1CCC(=O)NC1=O)C2=O (stereo not drawn) [C22548, N-[2-(2,6-dioxo-3-piperidyl)-1-oxo-isoindolin-4-yl] methanesulfonamide] | 631 | TRUE | 494
2 | COCC(=O)Nc1cccc2c1CN(C1CCC(=O)NC1=O)C2=O (stereo not drawn) [C22564, N-[2-(2,6-dioxo-3-piperidyl)-1-oxo-isoindolin-4-yl]-2-methoxy-acetamide] | 873 | TRUE | 
3 | CN(C)CC(=O)Nc1cccc2c1CN(C1CCC(=O)NC1=O)C2=O (stereo not drawn) [C22586, 2-(dimethylamino)-N-[2-(2,6-dioxo-3-piperidyl)-1-oxo-isoindolin-4-yl] acetamide] | 1140 | TRUE | 
4 | CCOC(=O)Nc1cccc2c1CN(C1CCC(=O)NC1=O)C2=O (stereo not drawn) [C22622, ethyl N-[2-(2,6-dioxo-3-piperidyl)-1-oxo-isoindolin-4-yl]carbamate] | 121 | TRUE | 
5 | O=C1CCC(N2Cc3cccc(F)c3C2=O)C(=O)N1 (stereo not drawn) [C23066, 3-(7-fluoro-1-oxo-isoindolin-2-yl)piperidine-2,6-dione] | 88.2 | TRUE | 
6 | Cc1ccc2c(c1)C(=O)N(C1CCC(=O)NC1=O)C2 (stereo not drawn) [C28620, 3-(6-methyl-1-oxo-isoindolin-2-yl)piperidine-2,6-dione] | 270 | TRUE | 
7 | CC(=O)Nc1ccc2c(c1)CN(C1CCC(=O)NC1=O)C2=O (stereo not drawn) [C29361, N-[2-(2,6-dioxo-3-piperidyl)-1-oxo-isoindolin-5-yl]acetamide] | 186 | TRUE | 
8 | O=C1CCCC(N2Cc3c(cccc3[N+](=O)[O-])C2=O)C(=O)N1 (stereo not drawn) [C29737, 3-(4-nitro-1-oxo-isoindolin-2-yl)azepane-2,7-dione] |  | TRUE | 1410
9 | O=C1CCC(N2Cc3c(NC(=O)Nc4cccc5c4CN(C4CCC(=O)NC4=O)C5=O)cccc3C2=O)C(=O)N1 (stereo not drawn) [C30231, 1,3-bis[2-(2,6-dioxo-3-piperidyl)-1-oxo-isoindolin-4-yl]urea] | 1700 | TRUE | 2730
10 | CC(=O)NC1c2ccccc2C(=O)N1C1CCC(=O)NC1=O (stereo not drawn) [C33779, N-[2-(2,6-dioxo-3-piperidyl)-3-oxo-isoindolin-1-yl]acetamide] | 3030 | TRUE | 
11 | CC(=O)NCCNc1ccc2c(c1)CN(C1CCC(=O)NC1=O)C2=O (stereo not drawn) [C35745, N-[2-[[2-(2,6-dioxo-3-piperidyl)-1-oxo-isoindolin-5-yl]amino]ethyl]acetamide] | 2630 | TRUE | 
12 | CCOC(=O)NCCNc1ccc2c(c1)CN(C1CCC(=O)NC1=O)C2=O (stereo not drawn) [C35754, ethyl N-[2-[[2-(2,6-dioxo-3-piperidyl)-1-oxo-isoindolin-5-yl]amino]ethyl]carbamate] | 278 | TRUE | 
13 | O=C1CCC(N2Cc3cc(NCC(=O)Nc4ccccc4)ccc3C2=O)C(=O)N1 (stereo not drawn) [C35797, 2-[[2-(2,6-dioxo-3-piperidyl)-1-oxo-isoindolin-5-yl]amino]-N-phenyl-acetamide] | 1080 | TRUE | 1330
14 | NC(=O)c1cccc(NC(=O)CNc2ccc3c(c2)CN(C2CCC(=O)NC2=O)C3=O)c1 (stereo not drawn) [C35811, 3-[[2-[[2-(2,6-dioxo-3-piperidyl)-1-oxo-isoindolin-5-yl]amino]acetyl]amino]benzamide] | 641 | TRUE | 
15 | O=C(CNc1ccc2c(c1)CN(C1CCC(=O)NC1=O)C2=O)NCc1ccccc1 (stereo not drawn) [C35856] | 188 | TRUE | 1150
16 | N#CC1c2ccccc2C(=O)N1C1CCC(=O)NC1=O (stereo not drawn) [C39453, 2-(2,6-dioxo-3-piperidyl)-3-oxo-isoindoline-1-carbonitrile] | 875 | TRUE | 17100
17 | Nc1cccc2c1CN(C1CC(=O)NC1=O)C2=O (stereo not drawn) [C47930, 3-(4-amino-1-oxo-isoindolin-2-yl)pyrrolidine-2,5-dione] |  | TRUE | 784
18 | O=C1CCC(N2Cc3ncccc3C2=O)C(=O)N1 (stereo not drawn) [C47959, 3-(5-oxo-7H-pyrrolo[3,4-b]pyridin-6-yl)piperidine-2,6-dione] | 441 | TRUE | 

Row | SMILES | EC50 [1] [nM] | Recruitment Assessment [2] | EC50 [3] [nM]
19 | O=C(O)CNc1ccc2c(c1)CN(C1CCC(=O)NC1=O)C2=O (stereo not drawn) [C47995, 2-[[2-(2,6-dioxo-3-piperidyl)-1-oxo-isoindolin-5-yl]amino]acetic acid] | 518 | TRUE | 
20 | O=C(O)CNc1cccc2c1C(=O)N(C1CCC(=O)NC1=O)C2 (stereo not drawn) [C47998, 2-[[2-(2,6-dioxo-3-piperidyl)-3-oxo-isoindolin-4-yl]amino]acetic acid] | 2170 | TRUE | 
21 | N#Cc1cccc2c1CN(C1CCC(=O)NC1=O)C2=O (stereo not drawn) [C48003, 2-(2,6-dioxo-3-piperidyl)-1-oxo-isoindoline-4-carbonitrile] | 581 | TRUE | 
22 | N#Cc1ccc2c(c1)CN(C1CCC(=O)NC1=O)C2=O (stereo not drawn) [C48005, 2-(2,6-dioxo-3-piperidyl)-1-oxo-isoindoline-5-carbonitrile] | 595 | TRUE | 
23 | N#Cc1ccc2c(c1)C(=O)N(C1CCC(=O)NC1=O)C2 (stereo not drawn) [C48007, 2-(2,6-dioxo-3-piperidyl)-3-oxo-isoindoline-5-carbonitrile] | 430 | TRUE | 1620
24 | O=C1CCC(N2Cc3cc(-c4ccccc4)ccc3C2=O)C(=O)N1 (stereo not drawn) [C48016, 3-(1-oxo-5-phenyl-isoindolin-2-yl)piperidine-2,6-dione] | 122 | TRUE | 
25 | O=C1CCC(N2Cc3ccc(-c4ccccc4)cc3C2=O)C(=O)N1 (stereo not drawn) [C48018, 3-(1-oxo-6-phenyl-isoindolin-2-yl)piperidine-2,6-dione] | 395 | TRUE | 
26 | O=C1CCC(N2C(=O)C3=C(C2=O)c2ccccc2CC3)C(=O)N1 (stereo not drawn) [C64340, 2-(2,6-dioxo-3-piperidyl)-4,5-dihydrobenzo[e]isoindole-1,3-dione] | 1490 | TRUE | 
27 | O=C1CCC(N2Cc3cc4c(cc3C2=O)OCO4)C(=O)N1 (stereo not drawn) [C68126, 3-(7-oxo-5H-[1,3]dioxolo[4,5-f]isoindol-6-yl)piperidine-2,6-dione] | 319 | TRUE | 
28 | O=C1CCC(N2Cc3cc(Nc4ncc5[nH]cnc5n4)ccc3C2=O)C(=O)N1 (stereo not drawn) [C80376, 3-[1-oxo-5-(7H-purin-2-ylamino)isoindolin-2-yl]piperidine-2,6-dione] | 559 | TRUE | 
29 | O=C1CCC(N2Cc3cc(Nc4ncc5c(n4)COC5)ccc3C2=O)C(=O)N1 (stereo not drawn) [C80380, 3-[5-(5,7-dihydrofuro[3,4-d]pyrimidin-2-ylamino)-1-oxo-isoindolin-2-yl]piperidine-2,6-dione] | 9.89 | TRUE | 1780
30 | O=C1CCC(N2Cc3ccc(Nc4ncc5c(n4)COC5)cc3C2=O)C(=O)N1 (stereo not drawn) [C80391, 3-[6-(5,7-dihydrofuro[3,4-d]pyrimidin-2-ylamino)-1-oxo-isoindolin-2-yl]piperidine-2,6-dione] | 152 | TRUE | 
31 | O=C1CCC(N2Cc3ccc(NC(=O)c4cnc5nccn5c4)cc3C2=O)C(=O)N1 (stereo not drawn) [C80396, N-[2-(2,6-dioxo-3-piperidyl)-3-oxo-isoindolin-5-yl]imidazo[1,2-a] pyrimidine-6-carboxamide] | 1380 | TRUE | 
32 | CC(Nc1ccc2c(c1)C(=O)N(C1CCC(=O)NC1=O)C2)C(=O)O (stereo not drawn) [C84970, 2-[[2-(2,6-dioxo-3-piperidyl)-3-oxo-isoindolin-5-yl]amino] propanoic acid] | 1010 | TRUE | 
33 | O=C1CCC(N2Cc3ccccc3C2)C(=O)N1 (stereo not drawn) [C87699, 3-isoindolin-2-ylpiperidine-2.6-dione] | 4820 | TRUE | 
34 | O=C1CCC(N2C(=O)c3ccccc3C2O)C(=O)N1 (stereo not drawn) [C89940, 3-(1-hydroxy-3-oxo-isoindolin-2-yl)piperidine-2,6-dione] | 438 | TRUE | 
35 | CN(C)c1ccc2c(c1)CN(C1CCC(=O)NC1=O)C2=O (stereo not drawn) [C98103, 3-[5-(dimethylamino)-1-oxo-isoindolin-2-yl]piperidine-2,6-dione] | < 13.7 | TRUE | 1290
36 | O=C(O)CN1CCN(Cc2ccc(COc3cccc4c3CN(C3CCC(=O)NC3=O)C4=O)cc2)CC1.O=CO (stereo not drawn) [ZE26-0001, 2-[4-[[4-[[2-(2,6-dioxo-3-piperidyl)-1-oxo-isoindolin-4-yl]oxymethyl]phenyl]methyl]piperazin-1-yl]acetic acid; formic acid] | 801 | TRUE | 4680

Source: patent US20230111853A1, “COMPOUNDS MODULATING PROTEIN RECRUITMENT AND/OR DEGRADATION” (Orionis Biosciences, Inc., priority 2019, published 2023)
